The values below come from PubChem BioAssay AID504544 (Sanford-Burnham Center for Chemical Genomics, 2011).

Calls of active or inactive are those of the source. The rule behind the calls is not given here.

The subject of the assay is S. cerevisiae tim23-1 mutant growth, luminescence. The assay can be described thus: growth inhibition of tim23-1 mutant yeast, dose response, counter-screen for tim10-1 yeast inhibitor project, luminescence, uHTS hits (AID 504544).
As a reminder, the IC50 is the concentration at which inhibition is half-maximal. Take `NNc1nc(-c2ccccc2)c2cc(Br)ccc2n1`: the IC50 was 21.8 µM.

With `COc1ccc(C(=O)O/N=C(\N)c2ccc(Br)cc2)cc1`, the IC50 is 14.4 µM.

In the case of `O=C1CS(=O)(=O)N(Cc2cccc(F)c2)c2ccc(Br)cc21`, the IC50 was 12.6 µM.

Regarding `O=S(=O)(CCN(CCS(=O)(=O)C(F)(F)F)CC1CCCO1)C(F)(F)F` (stereo unspecified), the IC50 is 11.2 µM.

In the case of `CC(C)NC(=S)N/N=C1\CCCCc2ccccc21`, the IC50 was 10.9 µM.

`O=c1c2ccccc2[se]n1-c1ccccc1`: the IC50 is 0.88 µM.

Take `Cc1ccccc1/C=C/C(=O)c1ccc([N+](=O)[O-])o1`: the IC50 was 1.5 µM.

On to `O=C(OCn1ncc(Br)c(Br)c1=O)c1ccccc1Cl`, for which the IC50 was 2.07 µM.

On to `Cc1ccc(S(=O)(=O)c2nc(S(C)(=O)=O)sc2N2CCCCC2C)cc1` (stereo unspecified), for which the IC50 is 11.7 µM.

`O=C(c1ccc2c3n(nc2c1)-c1ccccc1CO3)N1CCCCC1`: the IC50 was 9.67 µM.

In the case of `COc1ccc(/C(C)=N/NC(=S)NCCc2ccccc2)cc1`, the IC50 was 19.5 µM.

In the case of `COc1ccc(Br)cc1[C@H]1[C@H]2C=CC[C@@H](C)[C@@H]2C(=O)N1Cc1ccccc1`, the IC50 is 16.3 µM.

With `CC1=C/C(=N\OS(=O)(=O)c2ccccc2)C=CC1=O`, the IC50 is 0.27 µM.

Turning to `CC(C)C(=O)N1CCN(c2ccccc2NC(=O)c2ccc([N+](=O)[O-])o2)CC1`, the IC50 was 8.89 µM.

For the compound `Nc1nc(N)c(C=Nc2ccc(Br)cc2)c(Nc2ccc(Br)cc2)n1`, the IC50 was 14 µM.

For the compound `C=CC(=O)Oc1ccc(N2Cc3ccccc3C2=O)cc1`, the IC50 is 3.33 µM.

Turning to `O=C(NNC(=S)Nc1cccc(C(F)(F)F)c1)c1cccc(Cl)c1`, the IC50 was 25.5 µM.

Regarding `Cc1nc(Nc2ccccc2)sc1-c1ccccc1`, the IC50 is 29 µM.

For `Clc1ccc(CNc2nc(CN3CCOCC3)nc3scc(-c4ccccc4)c23)cc1`, the IC50 is 11.4 µM.

As for `O=C(/C=C/c1ccc2c(c1)OCCCO2)c1ccccc1O`, the IC50 is 18.3 µM.

Consider `Cc1ccc(F)c([C@H]2[C@@H]3C=CCC[C@@]3(C)C(=O)N2Cc2ccccc2)c1`, for which the IC50 is 18.4 µM.

Take `Cc1nonc1C1CCCN1C(=O)c1cc(COc2cccc(C(F)(F)F)c2)on1` (stereo unspecified): the IC50 is 19.2 µM.

Regarding `CCOC(=O)c1ccc(N2C(=O)C=CC2=O)cc1`, the 50% inhibitory concentration (IC50) is 0.48 µM.

Turning to `CCN(CC)C1CC(=O)N(c2cccc(Cl)c2)C1=O` (stereo unspecified), the IC50 was 2.46 µM.

Regarding `Nc1ccccc1C(=O)/C=C/c1ccc2c(c1)OCO2`, the IC50 was 18.9 µM.

As to `O=C(O)/C=C/C(=O)c1ccc2c(c1)CCc1ccccc1-2`, the IC50 was 5.09 µM.

For the compound `COc1ccc(-c2[nH]ncc2N=Nc2ccccc2)cc1`, the IC50 was 9.41 µM.

Turning to `N#C/C(=N/Nc1ccc(OC(F)(F)F)cc1)C(N)=S`, the IC50 was 1.31 µM.

Take `COc1ccc(/C=C/C(=O)c2ccccc2)cc1Cn1nnc2ccccc21`: the IC50 is 7.94 µM.

In the case of `CC1(CC(=O)N/N=C/c2ccc(OCc3ccc(Cl)cc3Cl)cc2)OCCCO1`, the IC50 is 4.3 µM.

Take `CC(C)(C)OC(=O)N[C@@H](Cc1ccccc1)c1nnc(S(=O)(=O)Cc2cccc(F)c2)o1`: the IC50 is 2.28 µM.

As to `Cc1ccc(NC(=S)/N=C(\N)Nc2nc(C)c3cc(C)ccc3n2)c(C)c1`, the IC50 was 17 µM.

Consider `CNC(=O)c1nnsc1S(=O)(=O)c1ccc(Cl)cc1`, for which the IC50 is 11.5 µM.

In the case of `Nc1nc(-c2ccc(Br)cc2)cs1`, the IC50 is 17.6 µM.

As for `Fc1ccccc1CNC(=S)Nc1cccc(C(F)(F)F)c1`, the IC50 is 11.8 µM.

As to `O=C1CC(Sc2nnnn2-c2ccccc2)C(=O)N1c1cccc(Cl)c1` (stereo unspecified), the IC50 is 2.92 µM.

For `N=C(N)c1ccc(/C=C/c2ccc(C(=N)N)cc2O)cc1`, the IC50 was 6.44 µM.

As to `COc1ccc(-c2sc3cc4c(cc3c2C#CC2(N)CCCCC2)OCO4)cc1`, the IC50 was 9.36 µM.

For the compound `O=C1C2C3C=CC(CO)(O3)C2C(=O)N1c1ccccc1-c1ccccc1` (stereo unspecified), the IC50 was 1.83 µM.

On to `Cc1cc(C)c(CSc2ncc(-c3ccc([N+](=O)[O-])cc3)[nH]2)c(C)c1`, for which the concentration for half-maximal inhibition (IC50) is 17.4 µM.

On to `CC1=C/C(=N\OS(=O)(=O)c2ccccc2)C(C)=CC1=O`, for which the IC50 is less than 0.2 µM.

For `CCOc1ccc(-n2cc(-c3ccccc3)c3c(=O)[nH]cnc32)cc1`, the IC50 was 13.8 µM.

Take `CC(C)(C)c1ccc(CN2N=Nc3ccccc3S2(=O)=O)cc1`: the IC50 is 5.66 µM.

Consider `Cn1c(NCCCO)nc2c(c1=O)C1(CCCCC1)Cc1ccccc1-2`, for which the IC50 is 8.71 µM.

Turning to `COc1ccc(C(=O)O/N=C(\N)c2ccccc2Cl)cc1OC`, the IC50 was 12.1 µM.

On to `COC(=O)C(C(C)=O)C1=C/C(=N\S(=O)(=O)c2ccc(C)cc2)c2ccccc2C1=O` (stereo unspecified), for which the IC50 is 9.86 µM.

For the compound `Cc1ccc(/C(N)=N/OC(=O)C(C)c2ccc([N+](=O)[O-])cc2)cc1` (stereo unspecified), the 50% inhibitory concentration (IC50) was 41.9 µM.

As to `CCOC(=O)c1c(CSc2ccc(C)cc2)n(C)c2cc(Br)c(O)c(CN(C)C)c12`, the IC50 was 19.9 µM.

On to `Cc1ccccc1OCC(=O)Nc1ccc(S(=O)(=O)N2CCCC2)cc1`, for which the IC50 was 7.95 µM.

`COc1ccc(Br)cc1[C@H]1[C@@H]2C=CCC[C@@]2(C)C(=O)N1Cc1ccccc1`: the IC50 was 14.3 µM.

As to `N/C(=N\OC(=O)c1ccc(Cl)cc1)c1ccc(Cl)cc1`, the IC50 is > 100 µM (inactive).

On to `Cc1ccc(NC2=C/C(=N\S(=O)(=O)c3cccs3)c3ccccc3C2=O)c(C)c1`, for which the IC50 is 11.9 µM.

Turning to `c1ccc(Nc2cccc(Nc3ccccc3)n2)cc1`, the IC50 is 9.11 µM.

Regarding `COc1ccc(/C(N)=N/OC(=O)c2ccc3c(c2)OCO3)cc1`, the IC50 was 7.52 µM.

With `CC(C)CN(CC(C)C)C(=S)Nc1ccc(Cl)cc1`, the 50% inhibitory concentration (IC50) was 55.2 µM.

For the compound `CCCn1c(CC)nc([N+](=O)[O-])c1S(=O)(=O)c1ccccc1`, the IC50 was 6.66 µM.

In the case of `N/C(Cc1ccc(Cl)cc1Cl)=N\OC(=O)Cc1ccc(Cl)cc1`, the IC50 was 1.39 µM.

With `O=C(Nc1cccc(N2C(=O)C=CC2=O)c1)c1cccs1`, the IC50 was 2.52 µM.

On to `Cc1cc([N+](=O)[O-])ccc1-c1ccc(C2Nc3ccccc3C(=O)N2O)o1` (stereo unspecified), for which the IC50 was 18.1 µM.

Take `CN(C)CCCN(C(=O)c1cc2cc([N+](=O)[O-])ccc2s1)c1nc2cc3c(cc2s1)OCCO3`: the IC50 is 13.5 µM.

Turning to `CCOC(=O)c1cc(-c2cccs2)nc2c1c(C)nn2-c1ccccn1`, the IC50 was 17.3 µM.

As to `COc1ccc(-c2cc(C3CC3)nc3sc(C#N)c(N)c23)cc1`, the IC50 is 6.84 µM.

Turning to `CCOC(=O)c1c(OCC)[nH]c2c1cc(O)c1ccccc12`, the IC50 is 17.1 µM.

`CCOc1ccccc1NC(=O)/C=C/C(N)=O`: the IC50 was 7.36 µM.

As for `NC(=NCCCCCCN=C(N)/N=C(\N)Nc1ccc(Cl)cc1)/N=C(\N)Nc1ccc(Cl)cc1`, the IC50 was > 100 µM (inactive).

For the compound `CCCOc1ccccc1NC(=O)/C=C/C(N)=O`, the IC50 was 2.34 µM.

In the case of `C/C(=N\NC(=S)NCc1ccccc1)c1ccc(Cl)s1`, the IC50 was 17.5 µM.

With `O=C(c1cc(COc2ccc(F)cc2Cl)on1)N1CCN(c2cnccn2)CC1`, the IC50 is 5.45 µM.

With `N/C(=N\OC(=O)CCC1CCCC1)c1ccccc1`, the IC50 was 29.6 µM.

Regarding `Cc1ccc(NC(=O)c2cc(S(=O)(=O)NCCC3=CCCCC3)ccc2F)cc1`, the IC50 was 33.2 µM.

With `COc1cc(C(=O)Nc2ccc(Cl)c(C(F)(F)F)c2)cc(OC)c1OC`, the IC50 was 33.3 µM.

For the compound `O=C(NC(=S)NNC(=O)c1ccccc1[N+](=O)[O-])c1ccc(Br)cc1`, the IC50 was 12.5 µM.

For the compound `COc1ccc(Cl)cc1NC(=S)NCCc1ccc(F)cc1`, the IC50 was 12.5 µM.

As to `CC(=O)N1CCN(c2cc(N3CCc4ccccc4C3)c(F)cc2[N+](=O)[O-])CC1`, the IC50 was 34.7 µM.

For `CCCOc1ccc(N2C(=O)CC(N3CCC(O)(c4cccc(C(F)(F)F)c4)CC3)C2=O)cc1` (stereo unspecified), the IC50 was 7.41 µM.

With `COc1ccc(NC2CCN(C3CC(=O)N(c4ccc(F)c(Cl)c4)C3=O)CC2)cc1` (stereo unspecified), the IC50 was 5.66 µM.

As to `COc1cc(OC)c(C(=O)O/N=C(\N)c2ccc(C)cc2)cc1OC`, the IC50 is 6.94 µM.

On to `CCCOc1ccc(CN(CCC#N)C(=S)NC(=O)c2ccccc2)cc1`, for which the IC50 is 22.7 µM.

`CCOC(=O)c1ccc(N=c2ssnc2Cl)cc1`: the half-inhibitory concentration (IC50) was 2.22 µM.

For the compound `O=C(NNC(=S)Nc1cccc(C(F)(F)F)c1)c1ccc(Cl)cc1Cl`, the IC50 was 7.04 µM.

`COc1ccc(-c2nncnn2)cc1`: the IC50 is 3.86 µM.

Take `CCSc1nc2ccccc2n1C(=O)/C=C\c1ccc(OC)c(OC)c1`: the IC50 is 11.8 µM.

As for `COc1cc(N=c2ssnc2Cl)c(OC)cc1Cl`, the IC50 was 3.77 µM.

With `Cc1ccc(F)c([C@H]2C3C=CCC(c4ccccc4)C3C(=O)N2Cc2ccccc2)c1` (stereo partly specified), the IC50 was 14.7 µM.

In the case of `CCCCCCCCCCOC(=O)Cn1c(COc2ccccc2OC)[n+](C)c2ccccc21`, the IC50 was 12 µM.

On to `CCOC(=O)c1ccc(NC(=O)CC2OCCN(CC)C2=O)cc1` (stereo unspecified), for which the IC50 was 2.02 µM.

Turning to `Cc1cccc(NC(=S)N/N=C2/CCCCc3ccccc32)c1`, the IC50 is 7.44 µM.

On to `CCCCc1ccc(NC(=S)Nc2ccc(Nc3ccc(OC)cc3)cc2)cc1`, for which the IC50 is 30.1 µM.

Take `CCOc1ccccc1N1C(=O)CC(Sc2n[nH]c(-c3ccccc3)n2)C1=O` (stereo unspecified): the IC50 is 4.1 µM.

Regarding `CN=C(Nc1cc(Cl)ccc1Cl)SC1CC(=O)N(c2ccc(C(=O)OC)cc2)C1=O` (stereo unspecified), the IC50 is 15.4 µM.

As for `N/C(Cc1ccc(Cl)cc1)=N\OC(=O)c1ccc2ccccc2c1`, the IC50 is 0.38 µM.

On to `c1ccc(Nc2cccc(Nc3ccccc3)c2)cc1`, for which the IC50 was 11 µM.

Take `COc1ccc(Cl)cc1NC(=O)CN(C)C(=O)C12CC3CC(CC(Cl)(C3)C1)C2`: the IC50 was 23.8 µM.

`COc1ccc(C(=O)O/N=C(\N)Cc2ccc(Cl)c(Cl)c2)cc1OC`: the IC50 is 1.38 µM.

Take `Cc1ccc(OCC(=O)O/N=C(\N)Cc2ccc(Cl)cc2)cc1`: the IC50 was 61.9 µM.

Regarding `Cc1cc(/C=C\c2ccc3cc(N(C)C)ccc3[n+]2C)c(C)n1-c1ccccc1`, the IC50 was 5.95 µM.

For `Fc1c(F)c(C(F)(F)F)c(F)c(F)c1N/N=C\c1cccs1`, the IC50 was 7.37 µM.

For `O=[N+]([O-])c1ccccc1N/N=C/c1c[nH]c2ccccc12`, the IC50 was 15.7 µM.

For the compound `C[C@@H]1CC=C[C@H]2[C@H]1C(=O)N(Cc1ccccc1)[C@H]2c1ccc(-c2ccoc2)cc1F`, the IC50 was 12.9 µM.

In the case of `Cn1c(/C=C/c2ccc([N+](=O)[O-])o2)nc2ccccc2c1=O`, the IC50 is 6.28 µM.

Take `S=C(NCCCc1ccccc1)Nc1ccc(Cl)cc1`: the IC50 is 7.14 µM.
